Measured values published in patent publication US8410159B2, “Imidazole compounds having pharmaceutical activity towards the sigma receptor” (Laboratories del Dr. Esteve, S.A., priority 2006, dated 2013).

Key:
σ1-receptor = molecular target: T1, σ1-receptor (Cavia porcellus, UniProt Q60492); assay: Sigma-1 receptor binding assay, [3H](+)-pentazocine, brain membranes; settings: guinea pig brain membranes; for inhibition at 0.1 µM: compound 10^−7 M; for inhibition at 0.1 µM / inhibition at 0.01 µM: [3H](+)-pentazocine 0.5 nM; for inhibition at 0.01 µM: compound 10^−8 M; for Ki: σ1, [3H](+)-pentazocine
T1 construct: guinea pig brains were homogenized; from tissue; host or cells: guinea pig brain membranes
Experimental: Brain membrane preparation and binding assays for the σ1-receptor were performed as described (DeHaven-Hudkins et al., 1992) with some modifications. In brief, guinea pig brains were homogenized in 10 vols. (w/v) of Tris-HCl 50 mM 0.32 M sucrose, pH 7.4, with a Kinematica Polytron PT 3000 at 15000 r.p.m. for 30 s. The homogenate was centrifuged at 1000 g for 10 min at 4° C. and the supernatants collected and centrifuged again at 48000 g for 15 min at 4° C. The pellet was resuspended in 10 volumes of Tris-HCl buffer (50 mM, pH 7.4), incubated at 37° C. for 30 min, and centrifuged at 48000 g for 20 min at 4° C. Following this, the pellet was resuspended in fresh Tris-HCl buffer (50 mM, pH 7.4) and stored on ice until use.
Each assay tube contained 10 μL of [^3H](+)-pentazocine (final concentration of 0.5 nM), 900 μL of the tissue suspension to a final assay volume of 1 mL and a final tissue concentration of approximately 30 mg tissue net weight/mL. Non-specific binding was defined by addition of a final concentration of 1 μM haloperidol. All tubes were incubated at 37° C. for 150 min before termination of the reaction by rapid filtration over Schleicher & Schuell GF 3362 glass fibre filters [previously soaked in a solution of 0.5% polyethylenimine for at least 1 h]. Filters were then washed with four times with 4 mL of cold Tris-HCl buffer (50 mM, pH 7.4). Following addition of scintillation cocktail, the samples were allowed to equilibrate overnight. The amount of bound radioactivity was determined by liquid scintillation spectrometry using a Wallac Winspectral 1414 liquid scintillation counter. Protein concentrations were determined by the method of Lowry et al. (1951).

[1] = system: capsaicin-induced allodynia; assay: von Frey filaments in a model of capsaicin-induced allodynia; assay type: in vivo; settings: percent analgesia compared to control, mice, mechanical stimulus (von Frey) after capsaicin
Experimental: In-Vivo-Experiments Using von Frey Filaments in a Model of […]-Induced Allodynia: This model is described in detail in the experimental part of WO 2006/010587 A1, examples 1 and 2, the description being included here by reference. Capsaicin is thereby injected into experimental animals to produce acute pain followed by allodynia. Briefly after habituation mice were first treated with the test-compound (or not in controls). Then capsaicin (1% DMSO) is injected into their paw resulting in developing pain in the effected paw. The effected paw is then treated with a mechanical stimulus and the latency time before the paw is withdrawn is measured.

T1 sequence (Q60492 whole entry): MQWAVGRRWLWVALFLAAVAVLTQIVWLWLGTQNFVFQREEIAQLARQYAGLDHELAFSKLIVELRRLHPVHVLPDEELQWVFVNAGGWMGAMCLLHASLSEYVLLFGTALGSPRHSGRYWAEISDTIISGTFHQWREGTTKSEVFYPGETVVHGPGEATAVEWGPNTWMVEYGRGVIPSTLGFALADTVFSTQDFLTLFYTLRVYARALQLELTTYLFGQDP

melting point [°C] | inhibition at 0.1 µM (σ1-receptor) [%] | inhibition at 0.01 µM (σ1-receptor) [%] | Ki (σ1-receptor) [nM] | SMILES | Analgesia (16 mg/kg), i.p. % [1] [%]
114 to 116 |  |  |  | CN(CCNc1ccn(-c2ccc(Cl)c(Cl)c2)n1)C1CCCCC1.O=C(O)C(=O)O | 
213 to 217 |  |  |  | CN1CCN(CC(=O)Nc2ccn(-c3ccc(Cl)c(Cl)c3)n2)CC1.O=C(O)C(=O)O | 
230 to 232 |  |  |  | CN1CCN(CCNc2ccn(-c3ccc(Cl)c(Cl)c3)n2)CC1.O=C(O)C(=O)O | 
157 to 159 |  |  |  | Clc1ccc(-n2ccc(NCCN3CCCCCC3)n2)cc1Cl.O=C(O)C(=O)O | 
206 to 209 |  |  |  | CN(CC(=O)Nc1ccn(-c2ccc(Cl)c(Cl)c2)n1)Cc1ccccc1.O=C(O)C(=O)O | 
213 to 217 |  |  |  | O=C(CN1CCOCC1)Nc1ccn(-c2ccc3ccccc3c2)n1.O=C(O)C(=O)O | 
148 to 153 |  |  |  | O=C(O)C(=O)O.c1ccc2cc(-n3ccc(NCCN4CCOCC4)n3)ccc2c1 | 
144 to 151 |  |  |  | Cc1cc(SCCN2CCCC2)nn1-c1ccc(Cl)c(Cl)c1.O=C(O)C(=O)O | 
219 to 220 |  |  |  | O=C(CN1CCOCC1)Nc1ccn(-c2cccc(Cl)c2)n1.O=C(O)C(=O)O | 
162 to 164 |  |  |  | Cc1cc(SCCN2CCCCC2)nn1-c1ccc(Cl)c(Cl)c1.O=C(O)C(=O)O | 
127 to 130 |  |  |  | O=C(CN1CCCC1)Nc1ccn(C2CCCCC2)n1.O=C(O)C(=O)O | 
144 to 146 |  |  |  | Clc1cccc(-n2ccc(NCCN3CCOCC3)n2)c1.O=C(O)C(=O)O | 
177 to 181 |  |  |  | O=C(CN1CCCCC1)Nc1ccn(C2CCCCC2)n1.O=C(O)C(=O)O | 
 | 37.8 | 25.9 |  | O=C(CN1CCOCC1)Nc1ccn(-c2ccc(Cl)c(Cl)c2)n1 [Example 2, N-(1-(3,4-dichlorophenyl)-1H-pyrazol-3-yl)-2-morpholinoacetamide] | 
 | 78.9 | 54.3 |  | Clc1ccc(-n2ccc(NCCN3CCOCC3)n2)cc1Cl [Example 3, 1-(3,4-dichlorophenyl)-N-(2-morpholinoethyl)-1H-pyrazol-3-amine] | 
69 to 74 | 77.3 | 51.7 | 6.4 | CCN(CC)CC(=O)Nc1ccn(-c2ccc(Cl)c(Cl)c2)n1 [Example 4, N-(1-(3,4-dichlorophenyl)-1H-pyrazol-3-yl)-2-(diethylamino)acetamide] | 47
78 to 82 | 68.2 | 46.1 |  | O=C(CN1CCCCC1)Nc1ccn(-c2ccc(Cl)c(Cl)c2)n1 [Example 5, N-[1-(3,4-dichlorophenyl)-1H-pyrazol-3-yl)-2-(piperidin-1-yl)acetamide] | 
168 to 172 | 88.3 | 53.6 | 7.1 | Clc1ccc(-n2ccc(NCCN3CCCCC3)n2)cc1Cl.O=C(O)C(=O)O [Example 6, 1-(3,4-Dichlorophenyl)-N-(2-(piperidin-1-yl)ethyl)-1H-pyrazol-3-amine oxalate] | 42
88 to 94 | 91.8 | 68.8 |  | CN(CC(=O)Nc1ccn(-c2ccc(Cl)c(Cl)c2)n1)C1CCCCC1 [Example 11, 2-(cyclohexyl (methyl)amino)-N-(1-(3,4-dichlorophenyl)-1H-pyrazol-3-yl)acetamide] | 
115 to 119 | 100 | 72.1 |  | Clc1ccc(-n2ccc(NCCN3CCN(C4CCCCC4)CC3)n2)cc1Cl [Example 14, N-(2-(4-cyclohexylpiperazin-1-yl)ethyl)-1-(3,4-dichlorophenyl)-1H-pyrazol-3-amine] | 
99 to 102 |  |  |  | O=C(CN1CCCCCC1)Nc1ccn(-c2ccc(Cl)c(Cl)c2)n1 [Example 28, 2-(azepan-1-yl)-N-(1-(3,4-dichlorophenyl)-1H-pyrazol-3-yl)acetamide] | 
 | 93.5 | 91.2 | 23 ± 0.6 | Cc1cc(SCCN2CCOCC2)nn1-c1ccc(Cl)c(Cl)c1.O=C(O)C(=O)O [Example 68, 4-(2-(1-(3,4-dichlorophenyl)-5-methyl-1H-pyrazol-3-ylthio)ethyl) morpholine oxalate] | 21
184 to 188 | 93.1 | 34.6 |  | CCN(CC)CCSc1cc(C)n(-c2ccc(Cl)c(Cl)c2)n1.O=C(O)C(=O)O [Example 70, 2-(1-(3,4-dichlorophe-nyl)-5-methyl-1H-pyrazol-3-ylthio)-N,N-diethylethanamine oxalate] | 

SMILES | melting point [°C] | inhibition at 0.1 µM (σ1-receptor) [%] | inhibition at 0.01 µM (σ1-receptor) [%] | Ki (σ1-receptor) [nM] | Analgesia (16 mg/kg), i.p. % [1] [%]
CCN(CC)CCNc1ccn(-c2ccc(Cl)c(Cl)c2)n1 [Example 1, 1-(3,4-dichlorophenyl)-N-(2-(diethylamino)ethyl)-1H-pyrazol-3-amine] |  | 66.6 | 1.8 | 46.4 | 
